Measurements published in publication PMC10764104, “Discovery of Molecular Glue Degraders via Isogenic Morphological Profiling” (ACS Chemical Biology, 2023).

Assays:
RKO WT cells = assay: CellTiter-Glo cytotoxicity of selected compounds (manual, 72 h); assay type: cell-based, human; settings: up to 10 μM
Protocol: (§1) Assessment of gene expression and essentiality in RKO WT
(§2) Fluorescence Polarization‐based competition assay
(§3) EC50 values were calculated with GraphPad Prism […]
(§4) the FP value of free tracer. […]
(§5) instructions. […] For the screening of the whole SuFEx
(§6) Data visualization was done with seaborn
(§7) (https://seaborn.pydata.org, version 0.12.2). […]
(§8) compounds. (F) Analysis of the cytotoxicity of compounds with treatment‐centric features related to FL2‐ […]
(§9) Synthesis and in Vitro Evaluation of Diverse Heterocyclic Diphenolic Compounds as Inhibitors of DYRK1A.
(§10) (7) Zhang, J.‐H.; Chung, T. D. Y.; Oldenburg, K. R. A Simple Statistical Parameter for Use in Evaluation and Validation of High Throughput Screening Assays. SLAS Discov.

HEK293T cells = assay: as above; assay type: cell-based, human; settings: up to 10 μM
Protocol: as §1, §2, §3, §4, §5, §6, §7, §8, §9, §10

recombinant DDB1-CRBN = molecular target: T1, recombinant DDB1-CRBN (Homo sapiens, UniProt Q96SW2); assay: Fluorescence polarization-based competition assay for CRBN binding; settings: 200 nM CRBN-DDB1, 20 nM pomalidomide-fluorescein tracer 16, triplicates; read-out: FP_CRBN_binding: CRBN binding affinity, EC50
T1 construct: His; made in house; host or cells: High Five insect cells (baculovirus made and propagated in SF9 cells)
Protocol: Prior to screening the compound library in the isogenic CPA, we assessed their CRBN binding affinities using a fluorescence-polarization-based competition assay with recombinant DDB1-CRBN and the fluorescent tracer 16 (Figure S2). […] We also assessed the cytotoxicity of the CRBN binders in RKO wild-type (WT) cells to determine the appropriate treatment concentration. […]
as §2
Fluorescence Polarization assays were performed in 384‐well, Low Volume, Black, Round Bottom, Polystyrene Nonbinding surface Microplates (Corning, #4514). The test compounds were incubated with 200 nM CRBN‐DDB1 and 20 nM Pomalidomide‐fluorescein tracer 16 in 50 mM Tris‐HCl pH 7.5, 200 mM NaCl, 1 mM DTT, 0.02% Triton X‐ 100, and 0.1 µg/µL Bovine Serum Albumin (Sigma Aldrich, #A7030) in a total volume of 25 µL. Fluorescence polarization values were determined with a PerkinElmer Envision reader with FITC FP dual mirror and FITC FP 480 excitation filter and FITC FP 535 emission filters. Fluorescence polarization values of a 10x serial dilution (10 nM to 100 µM) of the test compounds were determined in triplicates. EC50 values were calculated with GraphPad Prism software (version 10.0.2) with a non‐linear fit function (4PL sigmoidal curve fit) adjusting the bottom constrain to the FP value of free tracer. […]

GSPT2 = molecular target: T2, GSPT2 (Homo sapiens, UniProt Q8IYD1+Q96SW2); assay: Western blot analysis of GSPT1 and GSPT2 degradation in RKO WT or CRBN KO cells; assay type: cell-based; settings: RKO WT or RKO CRBN KO, 10 µM, 16 h
T2 construct: endogenous in cells; host or cells: RKO WT or RKO CRBN KO
Protocol: (A) Structure of FL2-14 comprising fluorosulfate scaffold FL2 (black) and tail group modification 14 (blue). (B) DMSO-normalized quantitative proteomics after 16 h of treatment with FL2-14 (10 μM) in RKO WT (n = 2). […] (C) Structural alignment of AlphaFold models of GSPT1 (AF-P15170-F1-model_v4 in gray) and GSPT2 (AF-Q8IYD1-F1-model_v4 in blue). (D) Validation of GSPT2 degradation by FL2-14. […] (E) Dose–response of FL2-14 in RKO and HEK293T cells. Cells were treated with the FL2-14 (0 to 10 μM) for 16 h. (F) Degradation of GSPT2^WT or GSPT2^G566N. […]
Analysis of targeted protein degradation of GSPT1 and GSPT2 via western blot For degradation assays 800 000 RKO WT or CRBN KO cells were seeded 1 day prior to the treatment in 6 well plates.
Then, cells were treated with 10 µM of the compounds for 16 hours if not otherwise stated. Cells were harvested, lysed for 30 min at 37°C in lysis buffer (1x PBS, 1% SDS, 2 mM MgCl2, 1x Halt Protease inhibitor cocktail, 50 Units Benzonase) and cleared for 30 min at 18 000 x g at 4°C. Protein concentration was determined with the Pierce 660 nm Protein Assay using the Ionic Detergent Compatibility Reagent (Thermo Scientific). 10 µg total proteome were subjected to western blot analysis by adding 4x Bolt™ LDS Sample Buffer (Thermo Scientific). Samples were boiled at 95°C for 5 min and subjected to gel electrophoresis with Bolt™ 4‐12% Bis‐Tris Plus Gels (Thermo Scientific) with Bolt™ MES SDS Running Buffer (Thermo Scientific). Membranes were blocked with 5% fat‐free milk in TBS‐T (20 mM Tris, 150 mM NaCl, 0.1% Tween, pH 7.6) for 1 h at room temperature and washed subsequently 3x 5 min with TBS‐
T. Afterwards, they were incubated for 1 h at room temperature with either GSPT1 antibody (Abcam ab49878, rabbit, […]
rabbit, 1:10 000), CRBN (Cell Signaling Technologies, CST71810S, rabbit, 1:1000), or GAPDH (SantaCruz sc‐47724, mouse, 1:1 000). Followed by washing 3x 5 min with TBS‐T and incubation for 1 h at room temperature with either Goat ANTI‐RABBIT IgG StarBright™ Blue 700 (Bio‐Rad, #12004162, 1:10 000) or Goat anti‐Mouse IgG (H+L) Cross‐ Adsorbed Secondary Antibody, DyLight™ 800 (Bio‐Rad, STAR117D800GA, 1:10 000) fluorophore‐conjugated

[1] = tested on: RKO WT, RKO CRBN KO and RKO CRBN OE; assay: Isogenic cell painting assay, treatment-centric feature selection and CRBN-dependency prediction; assay type: cell-based, human

EC50 (recombinant DDB1-CRBN)	Structure (SMILES)	other results
395 nM	CN(Cc1ncc(C2CC2)o1)S(=O)(=O)Oc1cccc(Nc2ccc3c(c2)C(=O)N(C2CCC(=O)NC2=O)C3=O)c1 (centres unmarked) [FL1-14]	GSPT1/2 degradation by CRBN binders with tail group modification 14 (GSPT2): weak degradation of GSPT2
	CN1C(=O)CCC(N2C(=O)c3cccc(N)c3C2=O)C1=O (centres unmarked) [Methylated pomalidomide]	Number_Features: number of treatment-centric features selected [1]: 0
	COc1cc(N2CCN(CCOCCOCCNC(=O)CNc3cccc4c3C(=O)N(C3CCC(=O)NC3=O)C4=O)CC2)ccc1Nc1ncc(Cl)c(Nc2ccccc2S(=O)(=O)C(C)C)n1 (centres unmarked) [TL 13-12]	change of cell size across isogenic RKO cells ([1]; 1.5 μM, RKO CRBN OE vs RKO CRBN KO): enlarges cells drastically in a CRBN-dependent manner
1050 nM	O=C1CCC(c2ccc(OS(=O)(=O)N3CC4(CNC(=O)N4)C3)cc2)C(=O)N1 (centres unmarked) [FL5-9]	
911 nM	CC1(C)CN(S(=O)(=O)Oc2cccc(Nc3cccc4c3C(=O)N(C3CCC(=O)NC3=O)C4=O)c2)CC2(CCOC2)O1 (centres unmarked) [FL3-8]	
775 nM	CN(Cc1ccc2c(c1)OCO2)S(=O)(=O)Oc1ccc(C2CCC(=O)NC2=O)cc1 (centres unmarked) [FL5-20]	
882 nM	CN(Cc1ncc(C2CC2)o1)S(=O)(=O)Oc1cccc(Nc2cccc3c2C(=O)N(C2CCC(=O)NC2=O)C3=O)c1 (centres unmarked) [FL3-14]	
940 nM	CC1c2cccn2CCN1S(=O)(=O)Oc1ccc(C2CCC(=O)NC2=O)cc1 (centres unmarked) [FL5-19]	
446 nM	CC(C)(O)C1CCN(S(=O)(=O)Oc2cccc(Nc3cccc4c3C(=O)N(C3CCC(=O)NC3=O)C4=O)c2)C1 (centres unmarked) [FL3-4]	
1720 nM	CN(Cc1ccc2c(c1)OCO2)S(=O)(=O)Oc1ccc(Nc2cccc3c2C(=O)N(C2CCC(=O)NC2=O)C3=O)cc1 (centres unmarked) [FL4-20]	
1840 nM	CC1c2cc(F)ccc2CCN1S(=O)(=O)Oc1cccc(Nc2ccc3c(c2)C(=O)N(C2CCC(=O)NC2=O)C3=O)c1 (centres unmarked) [FL1-17]	
502 nM	CN(Cc1ccc2[nH]nnc2c1)S(=O)(=O)Oc1ccc(C2CCC(=O)NC2=O)cc1 (centres unmarked) [FL5-15]	
4560 nM	O=C1CCC(N2C(=O)c3cccc(Nc4ccc(OS(=O)(=O)N5CCC(c6ccco6)C5)cc4)c3C2=O)C(=O)N1 (centres unmarked) [FL4-12]	
526 nM	Cc1cn2c(n1)CN(S(=O)(=O)Oc1ccc(Nc3ccc4c(c3)C(=O)N(C3CCC(=O)NC3=O)C4=O)cc1)CC2 (centres unmarked) [FL2-13]	
2700 nM	O=C1CCC(N2C(=O)c3cccc(Nc4cccc(OS(=O)(=O)N5CCC(c6ccco6)C5)c4)c3C2=O)C(=O)N1 (centres unmarked) [FL3-12]	
887 nM	CN(Cc1ncnn1C)S(=O)(=O)Oc1cccc(C2CCC(=O)NC2=O)c1 (centres unmarked) [FL6-11]	
301 nM	CC(O)CN(C)S(=O)(=O)Oc1cccc(Nc2cccc3c2C(=O)N(C2CCC(=O)NC2=O)C3=O)c1 (centres unmarked) [FL3-1]	
582 nM	O=C1CCC(N2C(=O)c3cccc(Nc4cccc(OS(=O)(=O)N5C[C@@H](F)[C@H](F)C5)c4)c3C2=O)C(=O)N1 (some centres unmarked) [FL3-10]	
370 nM	CC(O)CN(C)S(=O)(=O)Oc1ccc(Nc2cccc3c2C(=O)N(C2CCC(=O)NC2=O)C3=O)cc1 (centres unmarked) [FL4-1]	
961 nM	C[C@@H]1C[C@H](C)CN(S(=O)(=O)Oc2cccc(C3CCC(=O)NC3=O)c2)C1 (some centres unmarked) [FL6-6]	
435 nM	O=C1CCC(N2C(=O)c3ccc(Nc4cccc(OS(=O)(=O)N5CC6(CNC(=O)N6)C5)c4)cc3C2=O)C(=O)N1 (centres unmarked) [FL1-9]	
1080 nM	CN(C1CC1)S(=O)(=O)Oc1ccc(Nc2cccc3c2C(=O)N(C2CCC(=O)NC2=O)C3=O)cc1 (centres unmarked) [FL4-21]	

Structure (SMILES)	EC50 (recombinant DDB1-CRBN)	other results
CN(C)c1ncc(CN(C)S(=O)(=O)Oc2cccc(Nc3ccc4c(c3)C(=O)N(C3CCC(=O)NC3=O)C4=O)c2)cn1 (centres unmarked) [FL1-18]	363 nM	EC50 (RKO WT cells): > 10000 nM; EC50 (HEK293T cells): > 10000 nM
O=C1CCC(N2C(=O)c3ccc(Nc4cccc(OS(=O)(=O)N5CCC(c6ccco6)C5)c4)cc3C2=O)C(=O)N1 (centres unmarked) [FL1-12]	2780 nM	EC50 (RKO WT cells): > 10000 nM; EC50 (HEK293T cells): > 10000 nM
O=C1CCC(N2C(=O)c3ccc(Nc4cccc(OS(=O)(=O)N5CC(CCO)C5)c4)cc3C2=O)C(=O)N1 (centres unmarked) [FL1-2]	419 nM	EC50 (RKO WT cells): > 10000 nM; EC50 (HEK293T cells): > 10000 nM
